Type in all cases: in vivo
The subject of assay [1] is Setaria faberi (SETFA). The assay is described as follows: Example A post-emergence herbicidal activity, glasshouse pot test. As to conditions: Rate 125 g/ha, evaluated 14 or 15 days later, read-out: Post-Emergence Activity SETFA (100=total damage to plant; 0=no damage to plant). The method, then:
(§1) Seeds of a variety of test species were sown in standard soil in pots. After cultivation for one day (pre-emergence) or after 10 days cultivation (post-emergence) under controlled conditions in a glasshouse, the plants were sprayed with an aqueous spray solution derived from the formulation of the technical active ingredient in 0.6 ml acetone and 45 ml formulation solution containing 10.6% Emulsogen EL (Registry number 61791-12-6), 42.2% N-methylpyrrolidone, 42.2% dipropylene glycol monomethyl ether (Registry number 34590-94-8) and 0.2% X-77 (Registry number 11097-66-8). The test plants were then grown in a greenhouse under optimum conditions until, 14 or 15 days later for post-emergence and 19 or 20 days for pre-emergence, the test was evaluated (100=total damage to plant; 0=no damage to plant). Alopecurus myosuroides (ALOMY), Avena fatua (AVEFA), Lolium perenne (LOLPE), Setaria faberi (SETFA), Digitaria sanguinalis (DIGSA), Echinochloa crus-galli (ECHCG)

In assay [2] the test system is Alopecurus myosuroides (ALOMY). The assay is described as above. As to conditions: Rate 125 g/ha, evaluated 14 or 15 days later, read-out: Post-Emergence Activity ALOMY (100=total damage to plant; 0=no damage to plant). The method, then: as §1
In assay [3] the test system is Echinochloa crus-galli (ECHCG). Described as above. As to conditions: Rate 125 g/ha, evaluated 14 or 15 days later, read-out: Post-Emergence Activity ECHCG (100=total damage to plant; 0=no damage to plant). The method, then: as §1
For assay [4], the system named is Digitaria sanguinalis (DIGSA). Described as above. As to conditions: Rate 125 g/ha, evaluated 14 or 15 days later, read-out: Post-Emergence Activity DIGSA (100=total damage to plant; 0=no damage to plant). The method, then: as §1
The test system of assay [5] is Lolium perenne (LOLPE). The description is as above. As to conditions: Rate 125 g/ha, evaluated 14 or 15 days later, read-out: Post-Emergence Activity LOLPE (100=total damage to plant; 0=no damage to plant). As to the method:
as §1

Assay [6] relates to Avena fatua (AVEFA). The assay is described as above. As to conditions: Rate 125 g/ha, evaluated 14 or 15 days later, read-out: Post-Emergence Activity AVEFA (100=total damage to plant; 0=no damage to plant). As to the method:
as §1

Assay [7] deals with Setaria faberi (SETFA). The assay can be described thus: Example A pre-emergence herbicidal activity, glasshouse pot test. As to conditions: Rate 250 g/ha, evaluated 19 or 20 days later, read-out: Pre-Emergence Activity SETFA (100=total damage to plant; 0=no damage to plant). As to the method: as §1
Assay [8] deals with Alopecurus myosuroides (ALOMY). Described as above. As to conditions: Rate 250 g/ha, evaluated 19 or 20 days later, read-out: Pre-Emergence Activity ALOMY (100=total damage to plant; 0=no damage to plant). As to the method: as §1
In assay [9] the test system is Echinochloa crus-galli (ECHCG). Described as above. Particulars: Rate 250 g/ha, evaluated 19 or 20 days later, read-out: Pre-Emergence Activity ECHCG (100=total damage to plant; 0=no damage to plant). The method, then: as §1
In assay [10] the test system is Digitaria sanguinalis (DIGSA). The assay is described as above. As to conditions: Rate 250 g/ha, evaluated 19 or 20 days later, read-out: Pre-Emergence Activity DIGSA (100=total damage to plant; 0=no damage to plant). As to the method:
as §1

The subject of assay [11] is Lolium perenne (LOLPE). Described as above. As to conditions: Rate 250 g/ha, evaluated 19 or 20 days later, read-out: Pre-Emergence Activity LOLPE (100=total damage to plant; 0=no damage to plant). As to the method:
as §1

In assay [12] the test system is Avena fatua (AVEFA). The description is as above. As to conditions: Rate 250 g/ha, evaluated 19 or 20 days later, read-out: Pre-Emergence Activity AVEFA (100=total damage to plant; 0=no damage to plant). The method, then:
as §1

Take `Cc1sc(-c2ccc(Cl)cc2)nc1C1C(=O)[C@H]2[C@@H]3CC[C@@](C)(O3)[C@H]2C1=O` (mixture of isomers) [Compound T24]: the pest or weed control at 125 g/ha in the assay with Setaria faberi (SETFA) [1] stood at 80%; in assay [2] it was 70%; in [3], 100%; in [4], 90%; in the assay with Lolium perenne (LOLPE) [5] it was 30%; in the assay on Avena fatua (AVEFA) [6] it was 70%. Besides, the pest or weed control at 250 g/ha is 100% in the assay with Setaria faberi (SETFA) [7]; 90% in assay [8]; 100% in assay [9]; 100% in assay [10]; 90% in the assay on Lolium perenne (LOLPE) [11]; 60% in the assay with Avena fatua (AVEFA) [12].
For the compound `CCc1sc(-c2ccc(Cl)cc2)nc1C1C(=O)[C@H]2[C@@H]3CC[C@@](C)(O3)[C@H]2C1=O` (mixture of isomers) [Compound T25, 4-[2-(4-chloro-phenyl)-5-ethyl-thiazol-4-yl]-1-methyl-10-oxa-tricyclo[5.2.1.0*2,6*]decane-3,5-dione], the pest or weed control at 125 g/ha in the assay with Setaria faberi (SETFA) [1] worked out at 90%; in assay [2], 100%; in [3], 100%; in [4], 100%; in the assay on Lolium perenne (LOLPE) [5], 50%; with Avena fatua (AVEFA) [6], 100%. In addition, the pest or weed control at 250 g/ha in the assay with Setaria faberi (SETFA) [7] amounted to 100%; in assay [8] it was 90%; in assay [9] it was 100%; in assay [10] it was 100%; in the assay on Lolium perenne (LOLPE) [11], 100%; with Avena fatua (AVEFA) [12] it was 90%.
Regarding `Cc1sc(-c2ccc(Cl)cc2)cc1C1=C(OC(=O)C(C)(C)C)[C@@H]2[C@H](C1=O)[C@H]1CC[C@@H]2O1` (racemic) [Compound P1], the pest or weed control at 125 g/ha with Setaria faberi (SETFA) [1] turned out to be 90%; in assay [2], 70%; in assay [3], 100%; in assay [4], 80%; with Lolium perenne (LOLPE) [5] it was 60%; with Avena fatua (AVEFA) [6], 80%. Besides, the pest or weed control at 250 g/ha with Setaria faberi (SETFA) [7] came to 0%; in assay [8], 30%; in assay [9], 20%; in [10], 0%; in the assay with Lolium perenne (LOLPE) [11], 30%; in the assay on Avena fatua (AVEFA) [12], 0%.
`Cc1sc(-c2ccc(Cl)cc2)cc1C1=C(OC(=O)C(C)C)[C@@H]2[C@H](C1=O)[C@H]1CC[C@@H]2O1` (racemic) [Compound P2]: the pest or weed control at 125 g/ha was 80% in the assay with Setaria faberi (SETFA) [1]; 90% in assay [2]; 100% in assay [3]; 80% in assay [4]; 70% in the assay with Lolium perenne (LOLPE) [5]; 90% with Avena fatua (AVEFA) [6]. The pest or weed control at 250 g/ha with Setaria faberi (SETFA) [7] is 0%; in [8], 30%; in assay [9], 50%; in [10], 0%; in the assay on Lolium perenne (LOLPE) [11], 50%; in the assay on Avena fatua (AVEFA) [12] it was 0%.

The values above are taken from patent publication US8530667B2, “Herbicides” (Syngenta Limited, priority 2007, dated 2013).
